Assay results published in paper PMC12818745 (ACS Chemical Neuroscience, 2025).

How the values were obtained:
[1] = target: T1, Aβ42 aggregation (Homo sapiens, UniProt P05067); experiment: Thioflavin S assay of Aβ42 aggregation in E. coli cells overexpressing Aβ42; format: cell-based, Escherichia coli; settings: read-out: Aβ42 inhibition %
T1 construct: expressed in transfected cells; host or cells: E. coli BL21 (DE3), pET vector
Experimental: The antiaggregating profiles of both series A and B were evaluated using a fluorescence Thioflavin S (ThS) assay in cellulo, which monitors ThS fluorescence in the presence of β-sheet-rich structures, such as Aβ and tau protein aggregates. This method, based on recombinant Escherichia coli (E. coli) bacteria overexpressing insoluble aggregates, offers a simple and cost-effective approach to model aggregation processes in mammalian systems and has been validated for use in drug discovery studies. , Compounds were tested at a screening concentration of 50 μM for their ability to inhibit Aβ42 aggregation. The results, summarized in Table , reveal distinct antiaggregating profiles between series A and B, which are once again influenced by their structural differences.
42 Amino acid Aβ42 was cloned and overexpressed in E. coli BL21 (DE3) competent cells using the pET vector harboring the DNA sequence of Aβ42. Due to the addition of the initiation codon ATG preceding genes, the resulting overexpressed peptide contained an additional methionine residue at its N-terminus. For the preparation of overnight cultures, a colony of BL21 (DE3) cells carrying the plasmid for expression was inoculated in 10 mL of M9 minimal medium supplemented with 50 μg mL^–1 kanamycin at 37 °C. Subsequently, a 1:500 dilution of the overnight culture was added to fresh M9 minimal medium containing 50 μg mL^–1 kanamycin and 25 μM ThS. The bacterial culture was then incubated at 37 °C with agitation at 250 rpm. Upon reaching an OD600 of 0.6, 980 μL of the culture was transferred into 1.5 mL Eppendorf tubes, each containing 10 μL of the compound to be tested dissolved in DMSO and 10 μL of 100 mM isopropyl 1-thio-β-D-galactopyranoside (IPTG) or, alternatively, 10 μL of water for the noninduced controls. The final compound concentration was adjusted to […]. The samples were allowed to grow overnight at 37 °C with agitation at 1400 rpm using a Thermomixer (Eppendorf). Negative controls, representing maximum amyloid presence, utilized free DMSO.
ThS (T1892) and all other chemical reagents were purchased from Sigma (St. Louis, MO). Stock solutions of ThS (250 μM) were prepared using doubly distilled water purified via a Milli-Q system (Millipore). For the fluorescence assay, ThS spectra were recorded utilizing an AmincoBowman series 2 luminescence spectrophotometer (Aminco-Bowman AB2, SLM Aminco, Rochester, NY) within the range of 460 to 600 nm at a temperature of 25 °C. The excitation wavelength employed was 445 nm, with slit widths set at 4 nm. The emission at 485 nm, corresponding to the ThS peak observed in the presence of amyloids, was recorded. To standardize ThS fluorescence relative to bacterial concentration in both in vitro and cell-based assays, the OD600 was determined using a Shimadzu UV-2401 PC UV–vis spectrophotometer. Fluorescence normalization was executed by setting the ThS fluorescence of bacterial cells expressing the peptide or protein in the absence of the drug as 100%, while that of bacterial cells not expressing the peptide or protein was established as 0%.

[2] = target: eeAChE (Electrophorus electricus AChE) (Electrophorus electricus, UniProt O42275); experiment: Cholinesterase inhibition assay (modified Ellman's method), eeAChE; format: biochemical; settings: mean ± SEM, n = 3; n.a = nonactive; IC50 determined only if inhibition higher than 50% at 20 μM
Excerpt: Compound series A and B were initially screened for their cholinesterase activity against eeAChE (Electrophorus electricus AChE) and eqBChE (equine serum butyrylcholinesterase), using an adaptation of the Ellman’s method. […]. […] Similarly, replacing the terminal triple bond in 7l with a nitrile group reduced its activity, while replacing the O-propargyl group with an N,N-dipropargyl group in 10 enhanced the inhibition of both enzymes, particularly BChE (Table ). The installation of an additional aryl ring in 7o further improved AChE inhibition, slightly increasing selectivity toward this enzyme. […]. […]. […]. The inhibitory activity of the synthesized compounds toward eeAChE and eqBChE was evaluated spectrophotometrically through a 96-well microplate modified Ellman’s method. The solutions of both enzymes were prepared as 0.025 U/mL in phosphate buffer at pH 7, from stock solutions of 5.05 U/mL and 7.50 U/mL, respectively. The stock solutions for the target compounds (0.1 M) were prepared in dimethyl sulfoxide (DMSO). […] The reaction mixture was prepared with 100 μL of the enzyme (eeAChE or eqBChE) and 50 μL of the test compound (or DMSO/water, not exceeding 0.2% of DMSO in the wells; i.e blank samples). After 5 min of the preincubation period at 37 °C, 50 μL of ATChI or BTChI and 50 μL of DTNB were added to each well, thus initiating the enzymatic reaction. The absorbance values were measured at 415 nm, for a total of 7.5 min, at every 2.5 min, using a microplate reader (Synergy multimode reader; BioTek). […]. All experiments were performed in triplicate.

T1 sequence (P05067 672-713): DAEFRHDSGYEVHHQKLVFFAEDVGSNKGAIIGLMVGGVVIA
Sequence of eeAChE (Electrophorus electricus AChE) (O42275 24-633): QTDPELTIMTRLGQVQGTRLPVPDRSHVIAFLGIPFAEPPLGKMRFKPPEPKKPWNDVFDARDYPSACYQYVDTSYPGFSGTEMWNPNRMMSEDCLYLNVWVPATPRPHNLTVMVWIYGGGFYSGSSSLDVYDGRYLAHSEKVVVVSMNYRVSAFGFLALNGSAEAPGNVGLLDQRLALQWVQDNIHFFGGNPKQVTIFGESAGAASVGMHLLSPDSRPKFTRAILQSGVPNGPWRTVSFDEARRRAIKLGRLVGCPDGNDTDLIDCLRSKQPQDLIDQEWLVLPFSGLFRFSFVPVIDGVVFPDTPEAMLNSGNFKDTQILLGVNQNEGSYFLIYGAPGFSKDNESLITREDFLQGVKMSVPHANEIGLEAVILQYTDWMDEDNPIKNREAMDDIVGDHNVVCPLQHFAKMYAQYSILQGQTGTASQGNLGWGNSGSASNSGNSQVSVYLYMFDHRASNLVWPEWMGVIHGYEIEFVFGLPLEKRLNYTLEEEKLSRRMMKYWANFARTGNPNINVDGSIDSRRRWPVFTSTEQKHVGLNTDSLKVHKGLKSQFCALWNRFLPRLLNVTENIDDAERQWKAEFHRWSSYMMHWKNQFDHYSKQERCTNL

Structure (SMILES)	inhibition at 50 µM [1]	IC50 [2]
C#CCOc1ccccc1/C=C/c1cc(=O)c2ccccc2o1 [Compound 7a, (E)-2-[2-(Prop-2-yn-1-yloxy)styryl]-4H-chromen-4-one]	38 ± 6.2%	9500 ± 300 nM
C#CCOc1ccccc1/C=C/c1cc(=O)c2ccc(OC)cc2o1 [Compound 7b, (E)-7-Methoxy-2-[2-(prop-2-yn-1-yloxy)styryl]-4H-chromen-4-one]	23 ± 1.8%	
C#CCOc1ccccc1/C=C/c1cc(=O)c2c(OC)cccc2o1 [Compound 7c, (E)-5-Methoxy-2-[2-(prop-2-yn-1-yloxy)styryl]-4H-chromen-4-one]	33 ± 2.2%	
C#CCOc1ccccc1/C=C/c1cc(=O)c2ccc(OC)c(OC)c2o1 [Compound 7d, (E)-7,8-Dimethoxy-2-[2-(prop-2-yn-1-yloxy)styryl]-4H-chromen-4-one]	28 ± 1.7%	2400 ± 400 nM
C#CCOc1ccccc1/C=C/c1cc(=O)c2c(OC)cc(OC)cc2o1 [Compound 7e, (E)-5,7-Dimethoxy-2-[2-(prop-2-yn-1-yloxy)styryl]-4H-chromen-4-one]	24 ± 1.7%	
C#CCOc1ccc(OC)cc1/C=C/c1cc(=O)c2ccccc2o1 [Compound 7f, (E)-2-[5-Methoxy-2-(prop-2-yn-1-yloxy)styryl]-4H-chromen-4-one]	15 ± 2.7%	
C#CCOc1ccc(Br)cc1/C=C/c1cc(=O)c2ccccc2o1 [Compound 7g, (E)-2-[5-Bromo-2-(prop-2-yn-1-yloxy)styryl]-4H-chromen-4-one]	25 ± 4.6%	
C#CCOc1ccc(OC(F)(F)F)cc1/C=C/c1cc(=O)c2ccccc2o1 [Compound 7h, (E)-2-[2-(Prop-2-yn-1-yloxy)-5-(trifluoromethoxy)styryl]-4H-chromen-4-one]	11 ± 2%	
C#CCOc1ccc(F)cc1/C=C/c1cc(=O)c2ccccc2o1 [Compound 7i, (E)-2-[5-Fluoro-2-(prop-2-yn-1-yloxy)styryl]-4H-chromen-4-one]	22 ± 4.8%	
C#CCOc1ccc(Cl)cc1/C=C/c1cc(=O)c2ccccc2o1 [Compound 7j, (E)-2-[5-Chloro-2-(prop-2-yn-1-yloxy)styryl]-4H-chromen-4-one]	11 ± 2.3%	
C#CCOc1c(Br)cc(Cl)cc1/C=C/c1cc(=O)c2ccccc2o1 [Compound 7k, (E)-2-[3-Bromo-5-chloro-2-(prop-2-yn-1-yloxy)styryl]-4H-chromen-4-one]	24 ± 3%	
N#CCOc1ccccc1/C=C/c1cc(=O)c2ccccc2o1 [Compound 7l, (E)-2-{2-[2-(4-oxo-4H-chromen-2-yl)vinyl]phenoxy}acetonitrile]	34 ± 5.2%	
O=c1cc(/C=C/c2ccccc2OCC#Cc2ccccc2)oc2ccccc12 [Compound 7m, (E)-2-{2-[(3-Phenylprop-2-yn-1-yl)oxy]styryl}-4H-chromen-4-one]	28 ± 3.8%	
COc1ccc(C#CCOc2ccccc2/C=C/c2cc(=O)c3ccccc3o2)cc1 [Compound 7n, (E)-2-(2-{[3-(4-Methoxyphenyl)prop-2-yn-1-yl]oxy}styryl)-4H-chromen-4-one]	34 ± 3.3%	
Cc1ccc(C#CCOc2ccccc2/C=C/c2cc(=O)c3ccccc3o2)cc1 [Compound 7o, (E)-2-(2-{[3-(4-methylphenyl)prop-2-yn-1-yl]oxy}styryl)-4H-chromen-4-one]	37 ± 2%	2900 ± 500 nM
C#CCOc1ccc(OC)cc1/C=C/c1cc(=O)c2ccc(OC)cc2o1 [Compound 7p, (E)-7-Methoxy-2-[5-methoxy-2-(prop-2-yn-1-yloxy)styryl]-4H-chromen-4-one]	11 ± 1.5%	
C#CCOc1ccc(OC)cc1/C=C/c1cc(=O)c2ccc(OC)c(OC)c2o1 [Compound 7r]	40 ± 5.6%	

Structure (SMILES)	inhibition at 50 µM [1]	IC50 [2]
C#CCOc1ccc(OC)cc1/C=C/c1cc(=O)c2c(OC)cc(OC)cc2o1 [Compound 7s, (E)-5,7-Dimethoxy-2-[5-methoxy-2-(prop-2-yn-1-yloxy)styryl]-4H-chromen-4-one]	50 ± 1.6%	
C#CCOc1ccc(OC(F)(F)F)cc1/C=C/c1cc(=O)c2ccc(OC)cc2o1 [Compound 7t, (E)-7-Methoxy-2-[2-(prop-2-yn-1-yloxy)-5-(trifluoromethoxy)styryl]-4H-chromen-4-one]	20 ± 2.3%	
C#CCOc1ccc(F)cc1/C=C/c1cc(=O)c2ccc(OC)cc2o1 [Compound 7u, (E)-2-[5-Fluoro-2-(prop-2-yn-1-yloxy)styryl]-7-methoxy-4H-chromen-4-one]	28 ± 3.5%	
C#CCOc1ccc(Cl)cc1/C=C/c1cc(=O)c2ccc(OC)cc2o1 [Compound 7v, (E)-2-[5-Chloro-2-(prop-2-yn-1-yloxy)styryl]-7-methoxy-4H-chromen-4-one]	17 ± 2%	
C#CCOc1c(Br)cc(Cl)cc1/C=C/c1cc(=O)c2ccc(OC)cc2o1 [Compound 7w, (E)-2-[3-Bromo-5-chloro-2-(prop-2-yn-1-yloxy)styryl]-7-methoxy-4H-chromen-4-one]	35 ± 3%	
C#CCOc1ccc2ccccc2c1/C=C/c1cc(=O)c2ccccc2o1 [Compound 8a]	47 ± 3.9%	
C#CCOc1ccc2ccccc2c1/C=C/c1cc(=O)c2ccc(OC)cc2o1 [Compound 8b]	32 ± 4.3%	
O=c1c2ccccc2oc2cc3c(cc12)COc1ccccc1-3 [Compound 11a, 6H,8H-Chromeno[3,4-b]xanthen-8-one]	15 ± 4.6%	2100 ± 200 nM
COc1ccc2c(=O)c3cc4c(cc3oc2c1)-c1ccccc1OC4 [Compound 11b, 11-Methoxy-6H,8H-chromeno[3,4-b]xanthen-8-one]	22 ± 2.7%	3900 ± 900 nM
COc1cccc2oc3cc4c(cc3c(=O)c12)COc1ccccc1-4 [Compound 11c, 9-Methoxy-6H,8H-chromeno[3,4-b]xanthen-8-one]	34 ± 4.4%	
O=c1c2ccccc2oc2cc3c(cc12)COc1ccc(Br)cc1-3 [Compound 11g, 2-Bromo-6H,8H-chromeno[3,4-b]xanthen-8-one]	36 ± 4.8%	
O=c1c2ccccc2oc2cc3c(cc12)COc1ccc(Cl)cc1-3 [Compound 11j, 2-Chloro-6H,8H-chromeno[3,4-b]xanthen-8-one]	45 ± 7.4%	
COc1ccc2c(c1)-c1cc3oc4c(OC)c(OC)ccc4c(=O)c3cc1CO2 [Compound 11n, 2,11,12-Trimethoxy-6H,8H-chromeno[3,4-b]xanthen-8-one]	34 ± 4%	
COc1ccc2c(c1)-c1cc3oc4cc(OC)cc(OC)c4c(=O)c3cc1CO2 [Compound 11o, 2,9,11-Trimethoxy-6H,8H-chromeno[3,4-b]xanthen-8-one]	33 ± 4.3%	
COc1ccc2c(=O)c3cc4c(cc3oc2c1)-c1cc(OC(F)(F)F)ccc1OC4 [Compound 11p, 11-Methoxy-2-(trifluoromethoxy)-6H,8H-chromeno[3,4-b]xanthen-8-one]	29 ± 7.6%	
O=c1c2ccccc2oc2cc3c(cc12)COc1ccc2ccccc2c1-3 [Compound 12a]	43 ± 3.9%	
